We go through three compounds from US20110150961A1, “ANTI-INFECTIVE CATHETERS” (priority 2008, published 2011).

What all share (type): cell-based
Assay [1] relates to S. epidermidis. In words: MIC testing by broth microdilution, clinical isolates (Example 4). The conditions noted are these: Staphylococcus epidermidis. The protocol: (§1) The Gram-positive organisms tested were S. epidermidis, methicillin resistant S. epidermidis (MRSE), S. aureus, methicillin resistant S. aureus (MRSA), E. faecalis and vancomycin resistant E. faecalis, the Gram-negative organisms tested were P. aeruginosa, E. coli and K. pneumoniae .
(§2) For MIC testing, all isolates were tested against 5-FU by broth microdilution following CLSI methodology (M7-A7).
Background: Dilution methods test growth across graded concentrations, often in twofold steps.

For assay [2], the system named is K. pneumoniae. The description is as above. The conditions noted are these: Klebsiella pneumoniae, N=104. The protocol:
as §1, §2

Assay [3] has as its system E. coli. The assay is described as above. The conditions noted are these: Escherichia coli, N=102. Here is the method:
as §1, §2

In assay [4] the test system is P. aeruginosa. The description is as above. The conditions noted are these: Pseudomonas aeruginosa, N=100. Here is the method:
as §1, §2

Assay [5] relates to E. faecalis. The assay is described as above. Here is the method:
as §1, §2

Assay [6] has as its system S. aureus. Described as above. The conditions noted are these: Staphylococcus aureus. Here is the method: as §1, §2
Assay [7] deals with P. aeruginosa. In words: Multi-organism zone-of-inhibition screening (Example 15). The conditions noted are these: 24 hr, one sample per plate, antibiotic disks 6 mm (Gentamicin 10 μg, penicillin 10 units). Here is the method: (§3) The 5-FU CVC was compared with the commercially available Arrow CVC. Gentamicin (10 μg) or penicillin (10 units) disks were used as positive controls and CVC was used as the negative control. The samples were challenged with 3 species of Gram-positive bacteria, 4 species of Gram-negative bacteria and 1 type of yeast. The organisms used to challenge the samples were the following ATCC strains: S. aureus, Methicillin Resistant Staphylococcus aureus (MRSA), S. epidermidis, K. pneumoniae, and Vancomycin Resistant Pediococcus (VRP), E. coli, P. aeruginosa and C. albicans.
(§4) Organisms were inoculated into 2 mL of liquid agar, which was poured on top of solidified agar. One plate was made per organism. Test articles were inserted into the agar when the plates were solidified and dry. ZOI results were recorded at 24 hr. Three 0.5-cm sections of the 5-FU CVC were tested on each plate. Each plate also contained one negative and one positive control sample and 1 Arrow CVC sample.

Assay [8] concerns Methicillin Resistant Staphylococcus aureus (MRSA). The description is as above. The conditions noted are these: 24 hr, one sample per plate, antibiotic disks 6 mm (Gentamicin 10 μg, penicillin 10 units). Here is the method:
as §3
(§5) Organisms were inoculated into 2 mL of liquid agar, which was poured on top of solidified agar. One plate was made per organism. Test articles were inserted into the agar when the plates were solidified and dry. ZOI results were recorded at 24 hr. […] Each plate also contained one negative and one positive control sample and 1 Arrow CVC sample.

For assay [9], the system named is K. pneumoniae. The assay is described as above. The conditions noted are these: 24 hr, one sample per plate, antibiotic disks 6 mm (Gentamicin 10 μg, penicillin 10 units). Here is the method: as §3, §5
The subject of assay [10] is E. coli. The assay is described as above. The conditions noted are these: 24 hr, one sample per plate, antibiotic disks 6 mm (Gentamicin 10 μg, penicillin 10 units). The protocol:
as §3, §5

Assay [11] relates to C. albicans. The assay is described as above. The conditions noted are these: 24 hr, one sample per plate, antibiotic disks 6 mm (Gentamicin 10 μg, penicillin 10 units). Here is the method:
as §3, §4

Assay [12] deals with S. epidermidis. The description is as above. The conditions noted are these: 24 hr, one sample per plate, antibiotic disks 6 mm (Gentamicin 10 μg, penicillin 10 units). Here is the method:
as §3, §5

The subject of assay [13] is Vancomycin Resistant Pediococcus (VRP). The description is as above. The conditions noted are these: 24 hr, one sample per plate, antibiotic disks 6 mm (Gentamicin 10 μg, penicillin 10 units). The protocol:
as §3, §5

Assay [14] relates to S. aureus. The description is as above. The conditions noted are these: 24 hr, one sample per plate, antibiotic disks 6 mm (Gentamicin 10 μg, penicillin 10 units). Here is the method: as §3, §5

≈ marks a conversion by molar mass, not a printed value. Like-named read-outs stand apart in the source and are kept apart here.

As for `C[C@H]1COc2c(N3CCN(C)CC3)c(F)cc3c(=O)c(C(=O)O)cn1c23` [Levofloxacin], the MIC90 is greater than 128 µg/mL in assay [1] (Oxacillin-R, N=78); 128 µg/mL (≈ 354 µM) in [1] (Oxacillin-S, N=22); greater than 128 µg/mL in [1] (all, N=100); 0.12 µg/mL (≈ 0.332 µM) in [2]; 16 µg/mL (≈ 44.3 µM) in [3]; 32 µg/mL (≈ 88.6 µM) in assay [4]. In addition, the MIC90 in assay [5] (Enterococcus faecalis, all, N=101, read-out: MIC90) is 64 µg/mL (≈ 177 µM); in [5] (Vancomycin-R, N=21), 64 µg/mL (≈ 177 µM); in assay [5] (Vancomycin-S, N=80), 64 µg/mL (≈ 177 µM); in assay [6] (Oxacillin-R, N=40), 32 µg/mL (≈ 88.6 µM); in assay [6] (Oxacillin-S, N=61), 16 µg/mL (≈ 44.3 µM); in assay [6] (all, N=101) it was 32 µg/mL (≈ 88.6 µM).
For Gentamicin, the ZOI in assay [7] is 12.5 mm; in assay [8], 7.1 mm; in assay [9] it was 9.5 mm; in [10] it was 10.5 mm.
For Penicillin, the ZOI in assay [11] is 0 mm; in assay [12], 0 mm; in [13] it was 0 mm; in assay [14], 41.3 mm.

One may read the MIC90 as the lowest concentration that inhibits either 90% of growth or 90% of the strains tested, depending on the study.
